Assays:
Experiment in all cases: MIC, liquid medium test tube series dilution test
[1] = tested on: E. coli 14; format: cell-based; settings: E. coli 14, 24 hours, 37°C
Protocol: (§1) The chemotherapeutic activity of the new penicillins was tested in vivo and in vitro. The in vitro inhibition values (MIC = minimum inhibition concentration (see Tables 1 and 2) were determined in a liquid medium in the test tube series dilution test, with readings being taken after 24 hours' incubation at 37°C. The MIC is indicated by the non-turbid test tube in the dilution series. A complete medium of the following composition was used as the nutrient medium:
(§2) The figures quoted in the Examples for the effectiveness against certain bacteria (units/ml) are minimum inhibitory concentrations in the test tube series dilution test after 24 hours' incubation.

[2] = tested on: E. coli 183/58; format: cell-based; settings: E. coli 183/58, 24 hours, 37°C
Protocol: as §1, §2

[3] = tested on: E. coli A 261; format: cell-based; settings: E. coli A 261, 24 hours, 37°C
Protocol: as §1, §2

[4] = tested on: E. coli C 165; format: cell-based; settings: E. coli C 165, 24 hours, 37°C
Protocol: as §1, §2

[5] = tested on: Klebsiella 63; format: cell-based; settings: Klebsiella 63, 24 hours, 37°C
Protocol: as §1, §2

[6] = tested on: Klebsiella K 10; format: cell-based; settings: Klebsiella K 10, 24 hours, 37°C
Protocol: as §1, §2

[7] = tested on: Streptoc. faec. ATCC 9790; format: cell-based; settings: Strep. faec. (Enterococcus) ATCC 9790, 24 hours, 37°C
Protocol: as §1, §2

[8] = tested on: Proteus vulg. 1017; format: cell-based, Proteus vulgaris; settings: Proteus vulg. 1017, 24 hours, 37°C
Protocol: as §1, §2

[9] = tested on: Proteus vulg. 3400; format: cell-based, Proteus vulgaris; settings: Proteus vulg. 3400, 24 hours, 37°C
Protocol: as §1, §2

[10] = tested on: Psdm. aerug. Bonn; format: cell-based, Pseudomonas aerug.; settings: 24 hours, 37°C
Protocol: as §1, §2

[11] = tested on: Psdm. aerug. Walter; format: cell-based, Pseudomonas aerug.; settings: 24 hours, 37°C
Protocol: as §1, §2

[12] = tested on: Staph. aureus 133; format: cell-based, Staphylococcus aureus; settings: Staph. aureus 133, 24 hours, 37°C
Protocol: as §1, §2

Row | SMILES | MIC [1] | MIC [2] | MIC [3] | MIC [4] | MIC [5] | MIC [6] | MIC [7] | MIC [8] | MIC [9] | MIC [10] | MIC [11] | MIC [12] | further results
1 | C=CCN(C(C)=O)C(=O)N[C@@H](C(=O)N[C@@H]1C(=O)N2[C@@H]1SC(C)(C)[C@@H]2C(=O)O)c1ccccc1 [Example 1, Sodium D(-)-α-(3-acetyl-3-allylureido)-benzylpenicillin] | 25 units/ml | 100 units/ml | > 400 units/ml | 100 units/ml | 50 units/ml | 50 units/ml | 200 units/ml | 400 units/ml | 200 units/ml | 400 units/ml | 200 units/ml | 1.6 units/ml | –
2 | CN(C(=O)CCCCl)C(=O)N[C@@H](C(=O)N[C@@H]1C(=O)N2[C@@H]1SC(C)(C)[C@@H]2C(=O)O)c1ccccc1 [Example 2, Sodium D(-)-α-(3-γ-chlorobutyryl-3-methyl-ureido)-benzylpenicillin] | 3.1 units/ml | 12.5 units/ml | 400 units/ml | 12.5 units/ml | 50 units/ml | 50 units/ml | 200 units/ml | 100 units/ml | 25 units/ml | 100 units/ml | 100 units/ml | ~ 0.8 units/ml | –
3 | Cc1ccc(C(NC(=O)N(C)C(=O)c2ccccc2)C(=O)N[C@@H]2C(=O)N3[C@@H]2SC(C)(C)[C@@H]3C(=O)O)cc1 (stereo partly drawn) [Example 4, Sodium D,L-α-(3-benzoyl-3-methyl-ureido)-p-methylbenzyl-penicillin] | 0.8-4 units/ml | 4-20 units/ml | 100-500 units/ml | 4-20 units/ml | 20-100 units/ml | 20-100 units/ml | 100-500 units/ml | 4-20 units/ml | 4-20 units/ml | 20-100 units/ml | 20-100 units/ml | – | –
4 | COC(=O)N(C)C(=O)NC(C(=O)N[C@@H]1C(=O)N2[C@@H]1SC(C)(C)[C@@H]2C(=O)O)c1c(Cl)cccc1Cl (stereo partly drawn) [Example 9, Sodium D,L-α-(3-methoxycarbonyl-3-methyl-ureido)-2,6-dichlorobenzylpenicillin] | 20-100 units/ml | 100-500 units/ml | > 500 units/ml | 100-500 units/ml | > 500 units/ml | > 500 units/ml | ~ 500 units/ml | > 500 units/ml | > 500 units/ml | > 500 units/ml | > 500 units/ml | 0.8-4 units/ml | –
5 | C=CCN(C(=O)NC(C(=O)N[C@@H]1C(=O)N2[C@@H]1SC(C)(C)[C@@H]2C(=O)O)c1ccc(OC)cc1)C(=O)c1ccccc1 (stereo partly drawn) [Example 14, Sodium D,L-α-(3-benzoyl-3-allyl-ureido)-4-methoxybenzylpenicillin] | 4-20 units/ml | 20-100 units/ml | > 500 units/ml | 20-100 units/ml | 20-100 units/ml | 20-100 units/ml | 100-500 units/ml | 100-500 units/ml | ~ 100 units/ml | 100-500 units/ml | 100-500 units/ml | 0.8-4 units/ml | –
6 | C=CCN(C(=O)NC(C(=O)N[C@@H]1C(=O)N2[C@@H]1SC(C)(C)[C@@H]2C(=O)O)c1c(Cl)cccc1Cl)C(=O)c1ccccc1 (stereo partly drawn) [Example 15, Sodium D,L-α-(3-benzoyl-3-allyl-ureido)-2,6-dichlorobenzylpenicillin] | 20-100 units/ml | 100-500 units/ml | > 500 units/ml | 100-500 units/ml | > 500 units/ml | > 500 units/ml | > 500 units/ml | > 500 units/ml | > 500 units/ml | > 500 units/ml | > 500 units/ml | 0.8-4 units/ml | –
7 | C=CCN(C(C)=O)C(=O)NC(C(=O)N[C@@H]1C(=O)N2[C@@H]1SC(C)(C)[C@@H]2C(=O)O)c1cccs1 (stereo partly drawn) [Example 17, Sodium D,L-α-(3-acetyl-3-allyl-ureido)-2-thienylmethylpenicillin] | 4-20 units/ml | 20-100 units/ml | > 500 units/ml | 20-100 units/ml | 20-100 units/ml | 20-100 units/ml | 20-100 units/ml | > 500 units/ml | 100-500 units/ml | 100-500 units/ml | 100-500 units/ml | < 0.8 units/ml | –
8 | CC1(C)S[C@@H]2[C@H](NC(=O)C(NC(=O)N3CCNC3=O)c3ccc(Cl)cc3)C(=O)N2[C@H]1C(=O)O (stereo partly drawn) [Example 48 A, Sodium α-[(imidazolidin-2-on-1-yl)-carbonylamino]-p-chlorobenzylpenicillin] | – | – | – | – | 50 units/ml | 100 units/ml | – | – | – | – | – | – | MIC ([4]; listed as 48 A): 12,5 units/ml; MIC ([7]; listed as 48 A): 25 units/ml; MIC ([8]; listed as 48 A): 25 units/ml; MIC ([9]; listed as 48 A): 50 units/ml; MIC ([10]; listed as 48 A): 25 units/ml
9 | COC(=O)N(C)C(=O)N[C@@H](C(=O)N[C@@H]1C(=O)N2[C@@H]1SC(C)(C)[C@@H]2C(=O)O)c1ccccc1 [Example 96, Sodium D(-)-α-(3-methoxycarbonyl-3-methyl-ureido)-benzylpenicillin] | 6.25 units/ml | 25 units/ml | – | 12.5 units/ml | 200 units/ml | 200 units/ml | 25 units/ml | 50 units/ml | 50 units/ml | 25 units/ml | 25 units/ml | 1.56 units/ml | MIC ([1]; listed as (B) of Example 10): 6.25 units/ml; MIC ([2]; listed as (B) of Example 10): 25 units/ml; MIC ([5]; listed as (B) of Example 10): 200 units/ml; MIC ([6]; listed as (B) of Example 10): 200 units/ml; MIC ([10]; listed as (B) of Example 10): 25 units/ml; MIC ([11]; listed as (B) of Example 10): 25 units/ml; MIC ([12]; listed as (B) of Example 10): 1.56 units/ml
10 | CC(C)OC(=O)N(C)C(=O)N[C@@H](C(=O)N[C@@H]1C(=O)N2[C@@H]1SC(C)(C)[C@@H]2C(=O)O)c1ccccc1 [Example 97, Sodium D(-)-α-(3-i-propoxycarbonyl-3-methyl-ureido)-benzylpenicillin] | 6.25 units/ml | 6.25 units/ml | – | 25 units/ml | 50 units/ml | 400 units/ml | – | 25 units/ml | 25 units/ml | 25 units/ml | 50 units/ml | – | MIC ([1]; listed as (B) of Example 11): 6.25 units/ml; MIC ([2]; listed as (B) of Example 11): 6.25 units/ml; MIC ([4]; listed as (B) of Example 11): 25 units/ml; MIC ([10]; listed as (B) of Example 11): 25 units/ml; MIC ([11]; listed as (B) of Example 11): 50 units/ml
11 | CN(C(=O)N[C@@H](C(=O)N[C@@H]1C(=O)N2[C@@H]1SC(C)(C)[C@@H]2C(=O)O)c1ccccc1)C(=O)c1c(Cl)cccc1Cl [Example 141, Sodium D(-)-α-(3, o,o'-dichlorobenzoyl-3-methyl-ureido)-benzyl-penicillin] | 0.8 units/ml | 1.6 units/ml | 50 units/ml | 3.1 units/ml | 12.5 units/ml | 6.25 units/ml | – | 3.1 units/ml | 3.1 units/ml | 12.5 units/ml | 6.25 units/ml | – | –

Reference: patent publication US3974140A, “Ureidoacetamido-penicillins” (Bayer Aktiengesellschaft, priority 1970, dated 1976)
